# Reference: US10307389B2, “Succinate prodrugs for use in the treatment of lactic acidosis or drug-induced side-effects due to Complex I-related impairment of mitochondrial oxidative phosphorylation” (NEUROVIVE PHARMACEUTICAL AB, priority 2014, dated 2019)
# Legend:
# [1] = case report; cited from earlier work
# [2] = tested on: permeabilized human peripheral blood mononuclear cells (PBMCs); assay: High-resolution respirometry of permeabilized human PBMCs; details: PBMC, read-out: IC50 for inhibition of OXPHOSCI capacity
# Method: Real-time respirometric measurements were performed using high-resolution oxygraphs (Oxygraph-2k, Oroboros Instruments, Innsbruck, Austria). The experimental conditions during the measurements were the following: 37° C., 2 mL active chamber volume and 750 rpm stirrer speed. […] For data recording, DatLab software version 4 and 5 were used (Oroboros Instruments, Innsbruck, Austria). Settings, daily calibration and instrumental background corrections were conducted according to the manufacturer's instructions. […] All measurements were performed at a platelet concentration of 200×10^6 cells per mL or a PBMC concentration of 5×10^6 cells per mL. […] Maximal uncoupled respiratory electron transport system capacity supported by convergent input through complex I and […] ) was evaluated by subsequent titration with the protonophore carbonylcyanide p-(trifluoromethoxy) phenylhydrazone (FCCP). […] Complex IV activity was calculated by subtracting the sodium azide value from the TMPD value. With exception of complex IV activity, all respiratory states were measured at steady-state and corrected for ROX. Complex IV activity was measured after ROX determination and not at steady-state.
# [3] = tested on: permeabilized human platelets; assay: cells
# Method: Lactate production of intact human platelets was determined in PBS containing 10 mM glucose.
# Subsequently the FADH2-linked substrate succinate (10 mM) was given to determine convergent complex I- and II-dependent OXPHOS capacity (OXPHOSCI+II). […] Finally, the artificial complex IV substrate N,N,N′,N′-tetramethyl-p-phenylenediamine dihydrochloride (TMPD, 0.5 mM) was added and the complex IV inhibitor sodium azide (10 mM) was given to measure complex IV activity and chemical background, respectively.
# intact human platelets = assay: Lactate production and pH of intact human platelets; type: cell-based; details: 8 h; metformin 1 and 10 mM, phenformin 0.5 mM, rotenone 2 μM
# Method: Lactate levels are determined every 30 min using the Lactate Pro™ 2 blood lactate test meter (Arkray, Alere A B, Lidingö, Sweden) or similar types of measurements. Incubation is performed at 37° C. pH is measured at start, after 4 and after 8 h (or more frequently) of incubation using a Standard pH Meter, e.g. PHM210 (Radiometer, Copenhagen, Denmark). Drug candidates are added to the assay from start or following 30-60 min at concentrations within the range 10 μM-5 mM. […] In order to evaluate the specificity of the drug candidate, it is also tested in combination with a down-stream inhibitor of respiration such as the complex III inhibitor Antimycin at 1 μg/mL, which should abolish the effect of the drug candidate and restore the production of lactate.
# Incubation was performed at 37° C. at a stirrer speed of 750 rpm, and pH was measured at start, after 4 and after 8 h of incubation (n=4) using a PHM210 Standard pH Meter (Radiometer, Copenhagen, Denmark).
# [4] = patients; cited from earlier work
SMILES,"serum level in involuntary intoxication, prior to hemodialysis [1]",IC50 [2] [µM],"IC50 ([3]; Homo sapiens, Platelet, 10 min, read-out: IC50 for inhibition of OXPHOSCI capacity) [µM]","ETSCII capacity and complex IV activity ([3]; permeabilized platelets, compared to controls)","potency of OXPHOSCI inhibition relative to metformin ([3]; permeabilized platelets, phenformin vs metformin) [fold]",lactate production compared to control (intact human platelets),incidence of lactic acidosis [4]
CN(C)C(=N)N=C(N)N [Metformin],over 2 mM,450,,,,,
[H]/N=C(/N)N/C(=N/[H])NCCc1ccccc1 [Phenformin],,,58,not ETSCII or respiration specific to complex IV,20,significantly more lactate,4 cases per 10000 treatment-years
